Assay [1] deals with phospho-ERK1/2 and LC3-II in A375 cells. Kind of assay: Western blot of A375 cells treated with PLX-4032 with and without autophagy inhibitors. It counts as cell-based, human. The settings on record: in combination with PLX-4032, FIG. 16C. The protocol: For Western blotting, U2OS cells were seeded in 10 cm plates in 5A McCoy's with 10% FBS at 1×10^6 cells per plate. All melanoma lines were seeded in 10 cm plates in RPMI 1640 with 10% FBS at 1×10^6 cells per plate. After 24 hours, cells were treated with CQ, QN, Example 27, or Example 7 in a dose response of 0.3 μM, 1 μM, 3 μM, 10 μM, and 30 μM for three hours. A375 were treated with PLX-4032 (Selleck Chemicals, S1267) at 10 nM, 100 nM, and 1 μM for three hours with and without CQ, QN, Example 7, and Example 27 at 3 μM and 30 μM. After treatment, cells were lysed [10 mM KPO4, 1 mM EDTA, 10 mM MgCl2, 5 mM EGTA, 50 mM bis-glycerophosphate, 0.5% NP40, 0.1% Brij35, 0.1% sodium deoxycholate, 1 mM NaVO4, 5 mM NaF, 2 mM DTT, and complete protease inhibitors (Sigma, P8340-5 mL)] and 50 μg of protein was resolved by SDS-PAGE. Proteins were transferred to PVDF membranes and probed with primary antibodies [LC3 (Sigma, L7543-200UL), anti-α-tubulin (Sigma, T6199), cathepsin B (Santa Cruz, sc-13985)] for 16 hours at 4° C. followed by a secondary antibody [HRP-linked rabbit or mouse IgG (GE Healthcare, NA934 or NA931) or Odyssey IRDye 680CW Goat anti-rabbit IgG (LI-COR, 926-32221) or IRDye 800CW Goat anti-mouse IgG (LI-COR, 926-32210)] for 1 hour at room temperature. Proteins were detected with enhanced chemiluminescence or using the Odyssey machine and quantified (FIGS. 12, 15, 16, 7 and 11).
Since the melanoma cell lines are capable of undergoing autophagy and sensitive to autophagy inhibition, the inventors questioned whether autophagy inhibitors could improve the efficacy of, or sensitize melanoma cells against cytotoxic and chemotherapeutic drugs for advanced metastatic melanoma. In one example, PLX-4032 drug “vemurafenib” (marketed as ZELBORAF®) is a B-Raf enzyme inhibitor developed by Plexxikon and Genentech for the treatment of late-stage melanoma. The name “vemurafenib” comes from V600E mutated BRAF inhibition. PLX-4032, selectively targets the V600E mutant BRAF and it is unknown how this drug may affect autophagic flux. To determine the effects of the drug on autophagic flux, the present inventors performed experiments to determine whether PLX-4032 induces autophagy, as has been observed with other targeted agents. In some embodiments, the accumulation of LC3-II in response to lysosome inhibition was measured by quantitative Western blotting, as described above. A375 cells were treated with PLX-4032 (10 nM, 100 nM, and 1 μM) for three hours in the presence or absence of CQ.
(In general: A western blot detects proteins with antibodies after separation by electrophoresis.)

Assay [2] deals with P. falciparum NF54 (CQ sensitive). As to the kind of experiment: In vitro P. falciparum asexual blood stage, [3H]-hypoxanthine, NF54. Conditions: for antimalarial activity score: NF54 strain; for IC50: Plasmodium falciparum, NF54, Erythrocyte, read-out: Antimalarial activity (IC50) P. falciparum NF54 (CQ sensitive). The class given is cell-based, Plasmodium falciparum. The protocol: In this example, compounds of Formula A, Formula A^1, Formula A^2, Formula A^3 or pharmaceutically acceptable salts thereof, are tested in Plasmodium sp infected cells to determine the effectiveness of these compounds to determine their anti-malarial activity. Exemplary compounds, Example 7 and Example 27 (See Table 1) were dissolved in DMSO at 10 mg/mL and 4× compound dilutions were prepared in screening medium [RPMI 1640 with no hypoxanthine, HEPES (5.94 μg/L), NaHCO3 (2.1 μg/L), Neomycin (100 μg/mL), and Albumax II (5 μg/L)]. Human red blood cells were prepared without and with stock cultures of P. falciparum strains, NF54 (Chloroquinine (CQ) sensitive) and K1 (CQ resistant), to a parasitemia of 0.3% and hematocrit of 2.5%. Using a 96-well plate, 100 μL/well of red blood solution was added along with a 2-fold serial dilution of Example 7 and Example 27. Plates were incubated at 37° C. with 93% N2, 4% CO2, and 3% O2 for 48 hours, after which 50 μL of [3H]-hypoxanthine (0.5 μCi) was added to each well. After 24 hours, plates were harvested with a Betaplate™ cell harvester (Wallac, Zurich Switzerland) which transferred the red blood cells onto a glass fiber filter and washed with distilled water. Dried filters were inserted into a plastic foil with 10 mL of scintillation fluid and counted in a Betaplate™ liquid scintillation counter (Wallac, Zurich Switzerland). Results were obtained as counts per minute (cpm) per well at each concentration.

Another assay has as its system Plasmodium berghei. As to the kind of experiment: In vivo compound efficacy in Plasmodium berghei. Conditions: mice; oral 50 mg/kg at 4, 24, 48 and 72 hours post-infection; day 4. The protocol: Mice were infected intravenously with parasitized red blood cells on day 0 (2×10^7 parasitized erythrocytes per mL). Experimental mice were treated at 4, 24, 48, and 72 hours post-infection with an oral dose of Example 7 at 50 mg/kg and were compared to an infected control group for the % reduction in parasitaemia on day 4 (96 hours post-infection) and for mean survival (monitored up to 30 days post-infection). A compound was considered curative if the animal survived to day 30 after infection with no detectable parasites.
The potent anti-malarial activity of Example 7, combined with its therapeutic window in vitro, led us to explore its activity in vivo using a murine model of malaria. Mice are infected with the murine specific Plasmodium, P. berghei, after which an antimalarial treatment regimen is given. Example 7 was given at 50 mg/kg at times 4, 24, 48, and 72 hours post-infection of mice already infected with P. berghei. The reduction in parasitemia, measured as the total blood load of the P. berghei parasite, was compared to an infected control group for the percent reduction of parasite on day 4 (96 hours post-infection). Example 7 was unexpectedly shown to be effective in reducing parasitemia by 99% compared to the infected control group after 4 days, making it an effective antimalarial in these preclinical models.

We go through two compounds from patent US20170000784A1, “Autophagy Inhibitors” (priority 2013, published 2017).

Where two headings read alike, the source gives them in different places.

`COc1ccc2nc3cc(Cl)ccc3c(NCCCCN3CCN(C)CC3)c2c1` [Example 7, 6-Chloro-2-methoxy-N-(4-(4-methylpiperazin-1-yl)butyl)acridin-9-amine]: the LC3II accumulation entry in assay [1] is reported as “greater increases in LC3II accumulation”. In addition, the antimalarial activity score entry in assay [2] is “good activity (good activity: IC50<50 ng/mL)”. Further, the IC50 (commonly the midpoint of a concentration-inhibition curve) in assay [2] (in vitro, infected human red blood cells) turned out to be 4 nM. The “reduction in parasitemia compared to the infected control group” value with Plasmodium berghei is reported as 99%.

For the compound `CN1CCN(CCNc2c3c(nc4cc(Cl)ccc24)CCCC3)CC1` [Example 27, 6-Chloro-N-(2-(4-methylpiperazin-1-yl)ethyl)-1,2,3,4-tetrahydroacridin-9-amine], the LC3II accumulation entry in assay [1] is “greater increases in LC3II accumulation”. In addition, in assay [2], the antimalarial activity score result was “low activity (low activity: IC50 50-1000 ng/mL)” and the IC50 was determined as 323 nM.
